Drawing on PubChem BioAssay AID330 (DTP/NCI, 2004), this text covers T/C for 23 compounds.

SMILES strings stand for the structures. “And” between values parts separate entries of the source, which are not always exact repeats. Equal values may be shown once. Inconclusive results and toxic doses are left out.

The test system of the assay is P388 leukemia ip, CD2F1 mice, survival T/C. The assay is described as follows: NCI In Vivo Anticancer Drug Screen. Data for tumor model P388 Leukemia (intraperitoneal) in CD2F1 (CDF1) mice. The conditions noted are these: endpoint: median survival time, higher = longer survival. The gist of the method:
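Mice carrying the transplanted tumor received test compound or vehicle. Survival was recorded in each group, and the value is the treated-group measurement divided by that of the vehicle-treated control group.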

Setting [1] is: dose: 50.0 mg/kg/injection, schedule: Q01DX005 (ip), vehicle: Klucel (hydroxypropylcellulose) (HPC).
Where [2] appears, read: dose: 100.0 mg/kg/injection, schedule: Q01DX005 (ip), vehicle: Klucel (hydroxypropylcellulose) (HPC).
[3] abbreviates: dose: 200.0 mg/kg/injection, schedule: Q01DX005 (ip), vehicle: Klucel (hydroxypropylcellulose) (HPC).
Setting [4] is: dose: 50.0 mg/kg/injection, schedule: Q04DX003 (ip), vehicle: saline with Tween-80.
[5] abbreviates: dose: 200.0 mg/kg/injection, schedule: Q04DX003 (ip), vehicle: saline with Tween-80.
Where [6] appears, read: dose: 50.0 mg/kg/injection, schedule: Q01DX009 (ip), vehicle: saline with Tween-80.
[7] abbreviates: dose: 100.0 mg/kg/injection, schedule: Q01DX009 (ip), vehicle: saline with Tween-80.
Where [8] appears, read: dose: 100.0 mg/kg/injection, schedule: Q01DX009 (ip), vehicle: saline.
[9] abbreviates: dose: 200.0 mg/kg/injection, schedule: Q01DX009 (ip), vehicle: saline with Tween-80.
[10] abbreviates: dose: 60.0 mg/kg/injection, schedule: Q01DX005 (ip), vehicle: saline with Tween-80.
The mark [11] stands for this setting: dose: 120.0 mg/kg/injection, schedule: Q01DX005 (ip), vehicle: saline with Tween-80.
Setting [12] is: dose: 240.0 mg/kg/injection, schedule: Q01DX005 (ip), vehicle: saline with Tween-80.
Where [13] appears, read: dose: 3.12 mg/kg/injection, schedule: Q01DX009 (ip), vehicle: saline.
The mark [14] stands for this setting: dose: 6.25 mg/kg/injection, schedule: Q01DX009 (ip), vehicle: saline.
The mark [15] stands for this setting: dose: 12.5 mg/kg/injection, schedule: Q01DX009 (ip), vehicle: saline.
The mark [16] stands for this setting: dose: 25.0 mg/kg/injection, schedule: Q01DX009 (ip), vehicle: saline.

With `CN1CCC(O)(/C=C\C2(O)CCN(C)CC2)CC1`, the T/C runs as follows: (dose: 100.0 mg/kg/injection, schedule: Q01DX001 (ip), vehicle: saline) 96 % of control; (dose: 200.0 mg/kg/injection, schedule: Q01DX001 (ip), vehicle: saline) 89 % of control; (dose: 400.0 mg/kg/injection, schedule: Q01DX001 (ip), vehicle: saline) 107 % of control.

Take `Cc1cc(C)nc(NS(=O)(=O)c2ccc(NC(=O)c3ccncc3)cc2)n1`: the T/C is, setting by setting: under setting [1], 95 % of control; under setting [2], 96 % of control; under setting [3], 91 % of control.

In the case of `COc1cc(C=Nc2cc(Cl)ccc2-n2ccnc2C)ccc1N(CCCl)CCCl`, the T/C is 222 % of control under setting [4] and 88 % of control under setting [5].

On to `c1ccc2c(c1)Cc1c(-c3ccncc3)n[nH]c1-2`, for which the T/C was 100 % of control (dose: 25.0 mg/kg/injection, schedule: Q04DX003 (ip), vehicle: saline with Tween-80); 98 % of control under setting [4]; 94 % of control (dose: 100.0 mg/kg/injection, schedule: Q04DX003 (ip), vehicle: saline with Tween-80); 94 % of control under setting [5].

Regarding `O=C(O)Cn1cc(I)c(=O)c(I)c1`, the T/C runs as follows: under setting [6], 102 % of control; under setting [7], 112 % of control; under setting [8], 101 % of control; under setting [9], 110 % of control; (dose: 200.0 mg/kg/injection, schedule: Q01DX009 (ip), vehicle: saline) 105 % of control; (dose: 400.0 mg/kg/injection, schedule: Q01DX009 (ip), vehicle: saline with Tween-80) 112 % of control. Also, the T/C was 102 % of control (dose: 400.0 mg/kg/injection, schedule: Q01DX009 (ip), vehicle: saline) and 101 % of control (dose: 600.0 mg/kg/injection, schedule: Q01DX009 (ip), vehicle: saline).

In the case of `CCCCCCCC/C=C\CCCCCCCCCCCC(=O)OCCN(CCOC(=O)CCCCCCCCCCC/C=C\CCCCCCCC)C(=O)c1ccccc1`, the T/C runs as follows: under setting [6], 106 % of control; under setting [7], 116 % of control; under setting [9], 116 % of control.

Turning to `COC(=O)COc1cc2c(cc1C(C)c1ccc(OCc3ccccc3)cc1)OCO2` (centres undefined), the T/C was 89 % of control (dose: 50.0 mg/kg/injection, schedule: Q01DX005 (ip), vehicle: distilled water + Tween-80); 99 % of control (dose: 100.0 mg/kg/injection, schedule: Q01DX005 (ip), vehicle: distilled water + Tween-80); 106 % of control and 88 % of control (dose: 200.0 mg/kg/injection, schedule: Q01DX005 (ip), vehicle: distilled water + Tween-80).

`Cc1cc2nc(CC(=O)c3ccncc3)c(CC(=O)c3ccncc3)nc2cc1C`: the T/C is 106 % of control under setting [10], 91 % of control under setting [11] and 91 % of control under setting [12].

For the compound `COc1ccc(N(Cc2ccc(C)o2)C(=S)Nc2ccccc2)cc1`, the T/C is 98 % of control under setting [10], 102 % of control under setting [11] and 105 % of control under setting [12].

As to `[N-]=[N+]=CC(=O)CCC(=O)C=[N+]=[N-]`, the T/C (dose: 0.75 mg/kg/injection, schedule: Q01DX009 (ip), vehicle: other) was 123 % of control; the T/C (dose: 0.78 mg/kg/injection, schedule: Q01DX007 (ip), vehicle: DMSO) is 101 % of control; the T/C (dose: 1.56 mg/kg/injection, schedule: Q01DX007 (ip), vehicle: DMSO) is 117 % of control; the T/C (dose: 3.0 mg/kg/injection, schedule: Q01DX009 (ip), vehicle: other) is 170 % of control; the T/C (dose: 6.0 mg/kg/injection, schedule: Q01DX009 (ip), vehicle: other) was 104 % of control; the T/C (dose: 6.25 mg/kg/injection, schedule: Q01DX007 (ip), vehicle: DMSO) is 158 % of control. Also, the T/C (dose: 12.5 mg/kg/injection, schedule: Q01DX007 (ip), vehicle: DMSO) was 93 % of control and the T/C (dose: 25.0 mg/kg/injection, schedule: Q01DX007 (ip), vehicle: DMSO) is 93 % of control.

`O=C1C(Br)=C(Nc2ccccc2)C(=O)C(Br)=C1Nc1ccccc1`: the T/C reads like this: under setting [1], 98 % of control; under setting [2], 93 % of control.

Turning to `[O]=[Nb]`, the T/C (dose: 2.5 mg/kg/injection, schedule: Q01DX009 (ip), vehicle: saline with Tween-80) was 100 % of control and the T/C (dose: 5.0 mg/kg/injection, schedule: Q01DX009 (ip), vehicle: saline with Tween-80) was 100 % of control.

On to `CC(C)OCCCNCC(=O)Nc1ccc(S(=O)(=O)c2ccc(NC(=O)CNCCCOC(C)C)cc2)cc1`, for which the T/C was 95 % of control under setting [1], 100 % of control under setting [2] and 100 % of control under setting [3].

With `N=c1c2ccccc2cc2c3ccccc3ccn12`, the T/C under setting [10] is 115 % of control, the T/C under setting [11] is 99 % of control and the T/C under setting [12] is 108 % of control.

As for `CCN(CC)CCCC(C)n1c2nc(=O)[nH]c(=O)c-2nc2ccc(Cl)cc21` (centres undefined), the T/C reads like this: (dose: 6.25 mg/kg/injection, schedule: Q01DX005 (ip), vehicle: saline) 100 % of control; (dose: 12.5 mg/kg/injection, schedule: Q01DX005 (ip), vehicle: saline) 107 % of control; (dose: 25.0 mg/kg/injection, schedule: Q01DX005 (ip), vehicle: saline) 112 % of control.

`CN(/N=C\c1ccccc1)C(N)=S`: the T/C is, setting by setting: under setting [1], 105 % of control; under setting [2], 111 % of control; under setting [3], 101 % of control.

`O=NNc1ccc(Cl)nc1`: the T/C by setting is: under setting [13], 109 % of control; under setting [14], 110 % of control; under setting [15], 106 % of control; under setting [16], 106 % of control; (dose: 50.0 mg/kg/injection, schedule: Q01DX009 (ip), vehicle: saline) 107 % of control.

In the case of `COc1ccccc1N=N/C(=N\Nc1ccccc1OC)C(=O)Nc1ccccc1`, the T/C under setting [14] is 89 % of control, the T/C under setting [15] is 91 % of control, the T/C under setting [16] is 90 % of control and the T/C under setting [8] is 93 % of control.

Turning to `O=c1cc(NC2OC(CO)C(O)C(O)C2O)[nH]c(=O)[nH]1` (centres undefined), the T/C by setting is: under setting [10], 96 % of control; under setting [11], 102 % of control; under setting [12], 104 % of control.

In the case of `[N-]=[N+]=CC(=O)NCC(=O)NNC(=O)c1ccccc1`, the T/C under setting [13] is 92 % of control, the T/C under setting [14] is 87 % of control, the T/C under setting [15] was 100 % of control and the T/C under setting [16] is 87 % of control.

In the case of `COCn1cc(C(N)=O)c(=O)c2c(N)nc(SC)nc21`, the T/C (dose: 25.0 mg/kg/injection, schedule: Q04DX002 (ip), vehicle: saline with Tween-80) was 96 % of control.

`COC1OC2COC(c3ccccc3)OC2C(O)[CH]1[Hg][O]C(C)=O` (centres undefined): the T/C runs as follows: (dose: 0.1 mg/kg/injection, schedule: Q01DX009 (ip), vehicle: distilled water + Tween-80) 100 % of control; (dose: 0.19 mg/kg/injection, schedule: Q01DX009 (ip), vehicle: distilled water + Tween-80) 96 % of control; (dose: 0.38 mg/kg/injection, schedule: Q01DX009 (ip), vehicle: distilled water + Tween-80) 107 % of control; (dose: 0.78 mg/kg/injection, schedule: Q01DX009 (ip), vehicle: distilled water + Tween-80) 99 % of control; (dose: 1.56 mg/kg/injection, schedule: Q01DX009 (ip), vehicle: distilled water + Tween-80) 91 % of control; (dose: 3.13 mg/kg/injection, schedule: Q01DX009 (ip), vehicle: distilled water + Tween-80) 104 % of control. The T/C was 96 % of control (dose: 6.25 mg/kg/injection, schedule: Q01DX009 (ip), vehicle: distilled water + Tween-80) and 110 % of control (dose: 12.5 mg/kg/injection, schedule: Q01DX009 (ip), vehicle: distilled water + Tween-80).

`C=C(C(=O)OC)C1C=CCCCC1` (centres undefined): the T/C is 114 % of control (dose: 100.0 mg/kg/injection, schedule: Q01DX001 (ip), vehicle: saline with Tween-80); 113 % of control (dose: 200.0 mg/kg/injection, schedule: Q01DX001 (ip), vehicle: saline with Tween-80); 105 % of control (dose: 400.0 mg/kg/injection, schedule: Q01DX001 (ip), vehicle: saline with Tween-80).
